Measurements from ChEMBL document CHEMBL1811878, “Heteroatom-substituted analogues of orphan nuclear receptor small heterodimer partner ligand and apoptosis inducer (E)-4-[3-(1-Adamantyl)-4-hydroxyphenyl]-3-chlorocinnamic acid” (J Med Chem, 2011).
pIC50: −log10 of the molar value. Converted amounts (≈) assume the structure as drawn. One block for each compound: values may come before it. The source made the active and inactive calls. The calls are words filed in the database; no cut-off is given here.

Experiments:
SK-BR-3 [1] = experiment: Growth inhibition of estrogen receptor-deficient human SKBR3 cells at 1 uM after 144 hrs by MTT assay relative to control in presence of 5% serum; type: functional; conditions: SK-BR-3, 144 h, read-out: GI
HeLa [2] = experiment: Growth inhibition of human HeLa cells at 1 uM after 96 hrs by MTT assay in presence of 5% serum; type: functional; conditions: read-out: GI
A549 [3] = experiment: Growth inhibition of ERalpha-negative and ERbeta-positive human A549 cells at 10 uM after 72 hrs; type: functional; conditions: A549, 72 h, read-out: GI
HeLa [4] = experiment: Induction of apoptosis in human HeLa cells plated on serum free media for 24 hrs assessed as caspase 3 cleavage at 10 uM after 12 hrs; type: functional
HT-29 [5] = experiment: Growth inhibition of ERalpha-negative and ERbeta-positive human HT-29 cells at 10 uM after 72 hrs in presence of 10% FCS; type: functional; conditions: HT-29, 72 h, read-out: GI
SK-BR-3 [6] = experiment: Growth inhibition of estrogen receptor-deficient human SKBR3 cells at 1 uM after 216 hrs by MTT assay relative to control in presence of 5% serum; type: functional; conditions: SK-BR-3, 216 h, read-out: GI
KG-1 [7] = experiment: Induction of apoptosis in human KG1 cells expressing p53 gene assessed as DNA fragmentation at 1 uM after 48 hrs by acridine orange staining method; type: functional
HT-29 [8] = experiment: Induction of apoptosis in human HT-29 cells assessed as decrease in ATP level at 10 uM after 72 hrs by luminescence assay; type: functional; parameters: scale not given: the % may be the effect or the level left
HT-29 [9] = experiment: Induction of apoptosis in human HT-29 cells assessed as decrease in ATP level at 10 uM after 72 hrs by luminescence assay relative to control; type: functional; parameters: scale not given: the % may be the effect or the level left
MDA-MB-231 [10] = experiment: Induction of apoptosis in retinoid-resistant human MDA-MB-231 cells expressing p53 and ERbeta gene assessed as DNA fragmentation at 1 uM after 24 hrs by acridine orange staining method; type: functional
PC-3 [11] = experiment: Induction of apoptosis in human PC3 cells assessed as decrease in ATP level at 10 uM after 72 hrs by luminescence assay; type: functional, cell-based
A549 [12] = experiment: Induction of apoptosis in human A549 cells assessed as decrease in ATP level after 72 hrs by luminescence assay; type: functional, cell-based
A549 [13] = experiment: Induction of apoptosis in human A549 cells assessed as decrease in ATP level at 10 uM after 72 hrs by luminescence assay; type: functional, cell-based
HT-29 [14] = experiment: Induction of apoptosis in human HT-29 cells assessed as decrease in ATP level at 5 uM after 72 hrs by luminescence assay; type: functional; parameters: scale not given: the % may be the effect or the level left
[15] = Induction of apoptosis in mouse MMTV-Wnt-1 cells assessed as cell viability after 72 hrs by DAPI staining based cell counting; type: functional
HeLa [16] = experiment: Induction of apoptosis in human HeLa cells assessed as ATP level at 0.5 uM by luminometric analysis; type: functional, cell-based; conditions: TDE = time-dependent effect
KG-1 [17] = experiment: Induction of apoptosis in human KG1 cells assessed as DNA fragmentation at 5 uM after 48 hrs by acridine orange staining method; type: functional
A549 [18] = experiment: Induction of apoptosis in human A549 cells assessed as decrease in ATP level at 5 uM after 72 hrs by luminescence assay; type: functional; parameters: scale not given: the % may be the effect or the level left
PC-3 [19] = experiment: Induction of apoptosis in human PC3 cells assessed as decrease in ATP level after 72 hrs by luminescence assay; type: functional, cell-based
MDA-MB-231 [20] = experiment: Growth inhibition of retinoid-resistant human MDA-MB-231 cells expressing p53 and ERbeta gene at 0.1 to 1 uM by MTT assay; type: functional, cell-based; conditions: TDE = time-dependent effect
HeLa [21] = experiment: Induction of apoptosis in human HeLa cells assessed as ATP level at 1 uM after 72 hrs by acridine orange staining; type: functional
MDA-MB-231 [22] = experiment: Growth inhibition of retinoid-resistant human MDA-MB-231 cells expressing p53 and ERbeta gene at 1 uM after 24 hrs by MTT assay; type: functional; conditions: MDA-MB-231, 24 h, read-out: GI
MDA-MB-231 [23] = experiment: Induction of apoptosis in retinoid-resistant human MDA-MB-231 cells expressing p53 and ERbeta gene assessed as DNA fragmentation at 0.1 to 1 uM by acridine orange staining method; type: functional, cell-based; conditions: TDE = time-dependent effect
KG-1 [24] = experiment: Growth inhibition in human KG1 cells expressing p53 gene at 5 uM after 48 hrs by MTT assay; type: functional; conditions: KG-1, 48 h, read-out: GI
KG-1 [25] = experiment: Growth inhibition in human KG1 cells expressing p53 gene at 1 uM after 48 hrs by MTT assay; type: functional; conditions: KG-1, 48 h, read-out: GI
MDA-MB-231 [26] = experiment: Induction of apoptosis in retinoid-resistant human MDA-MB-231 cells expressing p53 and ERbeta gene assessed as DNA fragmentation at 1 uM after 48 hrs by acridine orange staining method; type: functional
SK-BR-3 [27] = experiment: Induction of apoptosis in estrogen receptor-deficient human SKBR3 cells assessed as DNA fragmentation at 0.5 uM after 48 hrs by acridine orange staining; type: functional
KG-1 [28] = experiment: Induction of apoptosis in human KG1 cells expressing p53 gene assessed as DNA fragmentation at 0.1 to 1 uM after 48 hrs by acridine orange staining method; type: functional, cell-based
MDA-MB-231 [29] = experiment: Growth inhibition of retinoid-resistant human MDA-MB-231 cells expressing p53 and ERbeta gene at 1 uM after 48 hrs by MTT assay; type: functional; conditions: MDA-MB-231, 48 h, read-out: GI
HT-29 [30] = experiment: Induction of apoptosis in human HT-29 cells assessed as decrease in ATP level after 72 hrs by luminescence assay; type: functional, cell-based
SK-BR-3 [31] = experiment: Induction of apoptosis in estrogen receptor-deficient human SKBR3 cells assessed as DNA fragmentation at 0.5 uM by acridine orange staining; type: functional, cell-based; conditions: TDE = time-dependent effect
KG-1 [32] = experiment: Growth inhibition in human KG1 cells expressing p53 gene at 0.1 to 1 uM after 48 hrs by MTT assay; type: functional, cell-based
SK-BR-3 [33] = experiment: Induction of apoptosis in human SKBR3 cells assessed as DNA fragmentation at 1 uM after 72 hrs by acridine orange staining; type: functional
[34] = Aqueous solubility of the compound in PBS at pH 7.2 by UV spectrophotometric analysis; type: physicochemical; conditions: PBS, read-out: solubility
HeLa [35] = experiment: Induction of apoptosis in human HeLa cells assessed as ATP level at 0.5 uM after 48 hrs by luminometric analysis; type: functional
[36] = Aqueous solubility of the compound in water at pH 5 by UV spectrophotometric analysis; type: physicochemical
MDA-MB-231 [37] = experiment: Induction of apoptosis in retinoid-resistant human MDA-MB-231 cells expressing p53 and ERbeta gene assessed as DNA fragmentation after 48 hrs by acridine orange staining method; type: functional, cell-based
MDA-MB-231 [38] = experiment: Growth inhibition of retinoid-resistant human MDA-MB-231 cells expressing p53 and ERbeta gene after 48 hrs by MTT assay; type: functional, cell-based
PC-3 [39] = experiment: Induction of apoptosis in human PC3 cells assessed as decrease in ATP level at 5 uM after 72 hrs by luminescence assay; type: functional; parameters: scale not given: the % may be the effect or the level left

SMILES: CC1=C(/C=C/C(C)=C/C=C/C(C)=C/C(=O)O)C(C)(C)CCC1 [TRETINOIN]
- inhibition of growth at 1 µM (SK-BR-3 [1]): 36%
- inhibition of growth at 1 µM (HeLa [2]): 71%
- inhibition of growth at 10 µM (A549 [3]): 5%
- Activity (HeLa [4]): 87%
- inhibition of growth at 10 µM (HT-29 [5]): 8%
- inhibition of growth at 1 µM (SK-BR-3 [6]): 24%

- solubility [34]: 14 µM (≈ 5.26 µg/mL)
- solubility [36]: 7 µM (≈ 2.63 µg/mL)
SMILES: O=C(O)/C=C/c1ccc(-c2ccc(O)c(C34CC5CC(CC(C5)C3)C4)c2)nc1
- Activity (KG-1 [7]): 68%
- Activity (HT-29 [8]): >=40%
- Activity (HT-29 [9]): <60%
- Activity (MDA-MB-231 [10]): 38%
- Activity (PC-3 [11]): Active
- Activity (A549 [12]): Dose-dependent effect
- Activity (A549 [13]): Active
- Activity (HT-29 [14]): 30%
- pIC50 [15]: 7.72
- Activity (HeLa [16]): tde
- Activity (KG-1 [17]): 84%
- Activity (A549 [18]): 30%
- Activity (PC-3 [19]): Dose-dependent effect
- growth inhibition (GI) (MDA-MB-231 [20]): tde
- Activity (HeLa [21]): 2.6%
- inhibition of growth at 1 µM (MDA-MB-231 [22]): 86%
- Activity (MDA-MB-231 [23]): tde
- inhibition of growth at 5 µM (KG-1 [24]): 90%
- inhibition of growth at 1 µM (KG-1 [25]): 85%
- Activity (MDA-MB-231 [26]): 82%
- Activity (SK-BR-3 [27]): 1.9%
- Activity (KG-1 [28]): Active
- inhibition of growth at 1 µM (MDA-MB-231 [29]): 85%
- Activity (HT-29 [30]): Dose-dependent effect
- Activity (SK-BR-3 [31]): tde
- growth inhibition (GI) (KG-1 [32]): Active
- Activity (SK-BR-3 [33]): 15%
- Activity (HeLa [35]): >60%
- Activity (MDA-MB-231 [37]): Dose-dependent effect
- growth inhibition (GI) (MDA-MB-231 [38]): Dose-dependent effect
- Activity (PC-3 [39]): 30%
